Results published in patent publication US10111435B2, “Herbicidal compositions containing N-(1,3,4-oxadiazol-2-yl)-aryl carboxylic acid amides” (BAYER CROPSCIENCE AKTIENGESELLSCHAFT, priority 2013, dated 2018).

Experiments:
Assay type in all cases: in vivo
Eleusine indica (ELEIN) = assay: greenhouse post-emergence herbicidal efficacy against ELEIN; details: for pest or weed control at 10 g/ha: 10 g of a.i./ha; for pest or weed control at 40 g/ha: 40 g of a.i./ha
Method: (§1) All trials whose results are shown were conducted in a greenhouse by the methodology specified below. The effect of the inventive herbicidal compositions was examined on the following harmful plants 14 and 21 days after application:
(§2) Echinochloa crus-galli (ECHCG), Eleusine indica (ELEIN), Setaria viridis (SETVI), Amaranthus retroflexus (AMARE), Chenopodium album (CHEAL), Kochia scoparia (KCHSC), Solanum nigrum (SOLNI), Avena fatua (AVEFA), Bromus sterilis (BROST), Lolium multiflorum (LOLMU), Phalaris minor (PHAMI), Poa annua (POAAN), Galium aparine (GALAP), Matricaria inodora (MATIN) and Polygonum convolvulus (POLCO).
(§3) The harmful plant seeds were sown in pots (diameter 8 cm) with sandy loam soil and germinated under optimal conditions. The inventive herbicidal compositions or the active ingredients alone were applied post-emergence to the planted pots with a spray volume of 300 L/ha. The trial was conducted in a greenhouse under optimum growth conditions. The herbicidal effects were assessed visually by comparison of untreated and treated plants. The percentages mean: 0%=no effects, 100%=the plants die off completely). The percentages are used to calculate interactions between individual treatments and combination treatments according to S. R. Colby, Weeds 15, pages 20 to 22 (1967).
(§4) The abbreviations mean: • a.i.=active ingredient • E^C=expected value according to Colby (E^C=A+B−A×B/100) • Diff: =difference (%) of measured value from expected value (%) (measured value minus expected value)
(§5) Assessment: • measured value E is greater than E^C:->synergism (+ diff.) • measured value E equals E^C:->additive effect • measured value E is smaller than E^C:->antagonism(− diff.)

DIGSA = assay: greenhouse post-emergence herbicidal efficacy against DIGSA
Method: as §1, §3, §4, §5

[1] = tested on: Polygonum convolvulus (POLCO); assay: greenhouse post-emergence herbicidal efficacy against POLCO
Method: as §1, §2
as §3, with “completely).” for “completely). The percentages are used to calculate interactions between individual treatments and combination treatments according to S. R. Colby, Weeds 15, pages 20 to 22 (1967).”
as §4, §5

[2] = tested on: Matricaria inodora (MATIN); assay: greenhouse post-emergence herbicidal efficacy against MATIN
Method: as §1, §2
as §3, with “completely).” for “completely). The percentages are used to calculate interactions between individual treatments and combination treatments according to S. R. Colby, Weeds 15, pages 20 to 22 (1967).”
as §4, §5

Galium aparine (GALAP) = assay: greenhouse post-emergence herbicidal efficacy against GALAP; details: 21 days after application
Method: as §1, §2
as §3, with “completely).” for “completely). The percentages are used to calculate interactions between individual treatments and combination treatments according to S. R. Colby, Weeds 15, pages 20 to 22 (1967).”
as §4, §5

[3] = tested on: Chenopodium album (CHEAL); assay: greenhouse post-emergence herbicidal efficacy against CHEAL
Method: as §1, §2, §3, §4, §5

Phalaris minor (PHAMI) = assay: greenhouse post-emergence herbicidal efficacy against PHAMI
Method: as §1, §2
as §3, with “completely).” for “completely). The percentages are used to calculate interactions between individual treatments and combination treatments according to S. R. Colby, Weeds 15, pages 20 to 22 (1967).”
as §4, §5

Poa annua (POAAN) = assay: greenhouse post-emergence herbicidal efficacy against POAAN
Method: as §1, §2
as §3, with “completely).” for “completely). The percentages are used to calculate interactions between individual treatments and combination treatments according to S. R. Colby, Weeds 15, pages 20 to 22 (1967).”
as §4, §5

[4] = tested on: Lolium multiflorum (LOLMU); assay: greenhouse post-emergence herbicidal efficacy against LOLMU; details: 14 days after application
Method: as §1, §2
as §3, with “completely).” for “completely). The percentages are used to calculate interactions between individual treatments and combination treatments according to S. R. Colby, Weeds 15, pages 20 to 22 (1967).”
as §4, §5

Bromus sterilis (BROST) = assay: greenhouse post-emergence herbicidal efficacy against BROST
Method: as §1, §2
as §3, with “completely).” for “completely). The percentages are used to calculate interactions between individual treatments and combination treatments according to S. R. Colby, Weeds 15, pages 20 to 22 (1967).”
as §4, §5

[5] = tested on: Amaranthus retroflexus (AMARE); assay: greenhouse post-emergence herbicidal efficacy against AMARE
Method: as §1, §2, §3, §4, §5

Setaria viridis (SETVI) = assay: greenhouse post-emergence herbicidal efficacy against SETVI
Method: as §1, §2, §3, §4, §5

[6] = tested on: Echinochloa crus-galli (ECHCG); assay: greenhouse post-emergence herbicidal efficacy against ECHCG
Method: as §1, §2, §3, §4, §5

Kochia scoparia (KCHSC) = assay: greenhouse post-emergence herbicidal efficacy against KCHSC
Method: as §1, §2, §3, §4, §5

Solanum nigrum (SOLNI) = assay: greenhouse post-emergence herbicidal efficacy against SOLNI; details: 21 days after application; 1 g of a.i./ha
Method: as §1, §2, §3, §4, §5

[7] = 14 days after application, 0.1 g of a.i./ha
[8] = 14 days after application, 0.4 g of a.i./ha
[9] = 21 days after application, 0.4 g of a.i./ha
[10] = 14 days after application, 2.5 g of a.i./ha
[11] = 14 days after application, 10 g of a.i./ha
[12] = 21 days after application, g of a.i./ha: A1-14 2.5, pyrasulfotole 25
[13] = 21 days after application, g of a.i./ha: A1-14 2.5, pyrasulfotole 100
[14] = 21 days after application, g of a.i./ha: A1-14 10, pyrasulfotole 100
[15] = Eleusine indica, post-emergence, 336 h, 14 days after application
[16] = Eleusine indica, post-emergence, 504 h, 21 days after application
[17] = 14 days after application, 40 g of a.i./ha
[18] = 21 days after application, 40 g of a.i./ha
[19] = 14 days after application, 4 g of a.i./ha
[20] = 14 days after application, 1 g of a.i./ha
[21] = 21 days after application, 4 g of a.i./ha
[22] = 21 days after application, 1 g of a.i./ha
[23] = 21 days after application, 0.25 g of a.i./ha

## Cc1nnc(NC(=O)c2ccc(C(F)(F)F)c([S+](C)[O-])c2Cl)o1 (centres unmarked) [A1-14]
Eleusine indica (ELEIN); [7]
  Efficacy: 0%
Eleusine indica (ELEIN); [8]
  Efficacy: 20%
DIGSA; [8]
  Efficacy: 0%
DIGSA; [9]
  Efficacy: 0%
[1]; [10]
  Efficacy: 20%
[1]; [11]
  Efficacy: 20%
[1]; [12]
  Efficacy: 0%
[1]; [13]
  Efficacy: 0%
[1]; 21 days after application, g of a.i./ha: A1-14 10, pyrasulfotole 25
  Efficacy: 3%
[1]; [14]
  Efficacy: 3%
[2]; [10]
  Efficacy: 50%
[2]; [11]
  Efficacy: 60%
[2]; [13]
  Efficacy: 30%
Galium aparine (GALAP); g of a.i./ha: A1-14 2.5, pyrasulfotole 25
  Efficacy: 0%
Galium aparine (GALAP); g of a.i./ha: A1-14 10, pyrasulfotole 25
  Efficacy: 15%
[3]; [7]
  Efficacy: 0%
[3]; 21 days after application, 0.1 g of a.i./ha
  Efficacy: 0%
Phalaris minor (PHAMI); [10]
  Efficacy: 0%
Phalaris minor (PHAMI); [11]
  Efficacy: 25%
Phalaris minor (PHAMI); [12]
  Efficacy: 0%
Phalaris minor (PHAMI); [13]
  Efficacy: 0%
Poa annua (POAAN); [10]
  Efficacy: 10%
Poa annua (POAAN); [12]
  Efficacy: 0%
Poa annua (POAAN); [13]
  Efficacy: 0%
[4]; 2.5 g of a.i./ha
  Efficacy: 0%
[4]; 10 g of a.i./ha
  Efficacy: 0%
Bromus sterilis (BROST); [10]
  Efficacy: 0%
Bromus sterilis (BROST); [11]
  Efficacy: 3%
Bromus sterilis (BROST); [14]
  Efficacy: 0%
[5]; [7]
  Efficacy: 0%
Setaria viridis (SETVI); [7]
  Efficacy: 0%
Setaria viridis (SETVI); [9]
  Efficacy: 0%
[6]; [8]
  Efficacy: 0%
[6]; [9]
  Efficacy: 0%

## COc1c(Cl)ccc(Cl)c1C(=O)O [dicamba]
Eleusine indica (ELEIN); [15]
  pest or weed control at 10 g/ha: 10%
  pest or weed control at 40 g/ha: 10%
Eleusine indica (ELEIN); [16]
  pest or weed control at 10 g/ha: 0%
  pest or weed control at 40 g/ha: 0%
DIGSA; [17]
  Efficacy: 0%
DIGSA; [18]
  Efficacy: 0%
[3]; [11]
  Efficacy: 50%
[5]; [17]
  Efficacy: 65%
[5]; [18]
  Efficacy: 65%
Setaria viridis (SETVI); [17]
  Efficacy: 0%
Setaria viridis (SETVI); [11]
  Efficacy: 0%
Setaria viridis (SETVI); 21 days after application, 10 g of a.i./ha
  Efficacy: 0%
Setaria viridis (SETVI); [18]
  Efficacy: 0%

## COc1cc(OC)nc(NC(=O)NS(=O)(=O)c2cc(NC=O)ccc2C(=O)N(C)C)n1 [foramsulfuron]
Eleusine indica (ELEIN); Eleusine indica, post-emergence, 504 h, 21 days after application, 1 g of a.i./ha
  pest or weed control at 1 g/ha: 60%
DIGSA; [19]
  Efficacy: 40%
[3]; [20]
  Efficacy: 50%
Kochia scoparia (KCHSC); [20]
  Efficacy: 80%
Kochia scoparia (KCHSC); [19]
  Efficacy: 90%
Kochia scoparia (KCHSC); [21]
  Efficacy: 80%
Setaria viridis (SETVI); [20]
  Efficacy: 40%
Setaria viridis (SETVI); [21]
  Efficacy: 50%
Setaria viridis (SETVI); [22]
  Efficacy: 20%
[6]; [20]
  Efficacy: 60%
[6]; [22]
  Efficacy: 30%

## COC(=O)c1csc(C)c1S(=O)(=O)NC(=O)n1nc(OC)n(C)c1=O [thiencarbazone-methyl]
[3]; [23]
  Efficacy: 50%
[3]; [22]
  Efficacy: 70%
[5]; [23]
  Efficacy: 60%
Solanum nigrum (SOLNI)
  Efficacy: 50%
